Measurements: patent US8986733B2, “Materials and methods for nerve repair” (University of Florida Research Foundation, Inc., priority 2001, dated 2015)
Entries after “also recorded” stand apart in the source; their conditions may differ.

Key:
[1] = tested on: cells of cultured nerve segments; test: Dissociation culture (squash preparations) of nerve segments; format: cell-based, rat; conditions: nerve segments cultured 2 days with and without GM6001
[2] = tested on: embryonic chick DRG neurons; test: Cryoculture assay of nerve explant cultures (predegeneration); format: cell-based; conditions: 2-day, 2% serum culture with GM6001 (50 μM); 68% without
Description: Nerve explant culture for predegeneration experiments. Adult (180-200 gm) female SPRAGUE DAWLEY rats (HARLAN, Indianapolis, Ind.) were used as nerve donors and graft recipients. This project was reviewed and approved by the Institutional Animal Care and Use Committee. Donor rats were deeply anesthetized with isofluorane and decapitated. Sciatic nerves were exposed through a gluteal muscle-splitting incision and isolated free of underlying fascia. A 15-mm nerve segment was excised rostral to the bifurcation into common peroneal and tibial nerves. The segments were rinsed with sterile Ringer's solution and stabilized by pinning the ends to a thin plastic support. […]
Cryoculture bioassay. […] Neurite lengths were measured directly using IMAGE-PRO PLUS software (MEDIA CYBERNETICS, Silver Springs, Md.). At least 250 neurons with neurites greater than one cell body (˜15 μm) were scored for each condition in each experiment.
Freshly excised (cellular) rat sciatic nerve segments were cultured for up to 7 days in medium containing 0, 2 and 10% fetal bovine serum. Control (uncultured) and cultured nerves were cryosectioned and their neurite-promoting activity was assessed by cryoculture assay. […]

[3] = tested on: MMP gelatinolytic activity; test: In situ zymography of cultured nerve explants; format: biochemical, rat; conditions: nerves cultured 2-day, 2% serum in presence of GM6001
Protocol: In situ zymography for nerve predegeneration experiments. Cryosections (10 μm) of unfixed normal and cultured nerves were mounted on slides and overlaid with reaction buffer (50 mM Tris-HCl, 150 mM NaCl, 5 mM CaCl2, 0.2 mM sodium azide, pH 7.6) containing 20 μg/ml of intramolecularly quenched, fluorescein-labeled gelatin substrate (MOLECULAR PROBES INC., Eugene, Oreg.) (Oh et al., 1999). In the control condition, the MMP inhibitor EDTA (30 mM) was included in the reaction buffer. After incubation for 24 h at 37° C., the sections were rinsed with PBS and fixed with 4% paraformaldehyde in phosphate buffer. The sections were rinsed with water and mounted using Citifluor. Fluorescein-gelatin peptides generated by gelatinolytic activity in the tissue sections were observed and photographed by epifluorescence microscopy.
The activity of MMPs is regulated by gene transcription, proenzyme activation and by the action of tissue inhibitors of metalloproteinases. The net gelatinolytic activity in nerve segments by in situ zymography was examined. Tissue sections were overlaid with quenched, fluorescein-gelatin, which is converted to fluorescent peptides by gelatinolytic activity within tissues. Constitutive gelatinolytic activity was detected in normal nerve mostly associated with Schwann cells aligned along the endoneurial basal lamina (as shown in FIGS. 17A and 17B). […]

## CNC(=O)[C@H](Cc1c[nH]c2ccccc12)NC(=O)[C@@H](CC(=O)NO)CC(C)C [GM6001]
[1]
  cell viability (cell outgrowth): no loss of cell viability
[2]
  increase in neurite length over control nerves for nerves cultured in presence of inhibitor: 14%
[3]
  gelatinolytic activity in treated nerve explants: nearly undetectable; also recorded: markedly decreased
